Data on 28 molecules can be found in patent US6355665B1, “1H-4(5)-substituted imidazole derivatives, their preparation and their use as histamine H3 receptor ligands” (James Black Foundation Limited, priority 1997, dated 2002).

The target in assay [1] is T1, Histamine H3 receptor (Cavia porcellus, UniProt Q9JI35). Put plainly: ileal longitudinal muscle, myenteric plexus functional assay (rightward shift of R-(α)-methylhistamine E/[A] curves, Schild). The assay is classed as cell-based. On the set-up: the longitudinal muscle layer and adhering myenteric plexus was teased away; from tissue; host or cells: guinea pig ileal longitudinal muscle with myenteric plexus (organ bath). The following applies: guinea pig ileum longitudinal muscle myenteric plexus, electrically stimulated; antagonism of R-(α)-methylhistamine; typical variance ±0.15 log units; read-out: pKB (functional assay) - ileum (converted). The procedure:
The biological activity of the compounds of the examples was measured using the ileal longitudinal muscle, myenteric plexus assay described by Paton and Aboo Zar (J. Physiol. 1968, 194, 13-33). Male Dunkin-Hartley guinea pigs (250-300 g) were employed. Briefly, a 50 cm portion of ileum proximal to the caecum was removed, after discarding the terminal 20 cm. Ileal segments (3 cm) were cleaned by passing Krebs-Henseleit buffer containing 3 μM mepyramine gently through the ileum using a Pasteur pipette (size: 13.8 cm length, 0.65 cm diameter). To avoid unnecessary damage to the tissue, Krebs-Henseleit buffer was passed through the ileal segment, while it was lying horizontally on a petri dish. Therefore, the ileum was not over-distended and the buffer flowed through with ease. Each segment was then passed over a Pasteur pipette and the longitudinal muscle layer and adhering myenteric plexus was teased away using moist cotton wool, by stroking tangentially away from the mesenteric attachment. The tissues were suspended in 20 ml organ baths containing Krebs-Henseleit buffer at 37±1° C. and gassed with 95% CO2/5% O2. The tissues were ligated to two parallel stainless steel wires, situated between two platinum electrodes (0.76 cm length, 0.06 cm diameter). All measurements were recorded isometrically (Grass FTO3 transducer). Following an initial loading tension of 1 g, the tissues were stimulated with electrical pulses at a frequency of 0.1 Hz and a pulse duration of 0.5 msec, as described by Kosterlitz & Watt (Br. J. Pharmacol. 1968, 266-276). Initially, the tissues were stimulated at supramaximal (1.3 fold times maximal) voltage for a period of 30 min and then the tissues were washed and re-stimulated. A “sighter dose” of the selective histamine H3-receptor agonist, R-(α)-methylhistamine (0.3 μM) (Arrang et al. Nature, 1987, 117-123), was administered. Upon generation of response, the “sighter dose” was removed from the tissues by “washout” (6 washes over 60 min) and during this period the electrical stimulation was switched off. The tissues were then re-stimulated and allowed to stabilise prior to the addition of drug treatments, which were allocated on a randomised block basis to the organ baths. Following the incubation period, a single cumulative E/[A] curve was obtained. The experimental E/[A] curve data was expressed as the percentage inhibition of the peak height of electrically-stimulated contraction. Antagonist affinity values were calculated from the degree of rightward shift of the R-(α)-methylhistamine E/[A] curves using Schild's methods (Arunlakshana & Schild Br. J. Pharmacol. 1959, 48-58). Typical variance in this assay is ±0.15 log units.

Assay [2] has as its target T1, Histamine H3 receptor. The assay is described as follows: Histamine H3 radioligand binding assay, guinea pig cortex ([3H]-R-α-methylhistamine). On the set-up: The cortex was dissected, weighed and homogenised in ice-cold 20 mM Hepes-NaOH buffer; from tissue; host or cells: guinea pig cerebral cortex membranes. The following applies: guinea pig cortex membranes; [3H]-R-α-methylhistamine 0.1 nM; typical variance ±0.12 log units; read-out: pKI (binding assay) - cortex (converted). The procedure: Histamine H3 Radioligand Binding Assay—Guinea Pig Cortex
Male Dunkin Hartley guinea pigs (200-300 g) were used. The whole brain was removed and immediately placed in ice-cold 20 mM Hepes-NaOH buffer (pH7.4 at 21±3° C.). The cortex was dissected, weighed and homogenised in ice-cold 20 mM Hepes-NaOH buffer (pH7.4 at 21±3° C.) (50 ml/guinea-pig cortex) using a polytron (Kinematica AG; PT-DA 3020/2TS, 3×3 s). The homogenate was centrifuged at 100×g for 5 min and the supernatants pooled and stored at 4° C. The pellets were rehomogenised in fresh ice-cold buffer (80 ml) and recentrifuged (100×g for 5 min). The supernatants were pooled and pellets rehomogenised and recentrifuged (100×g for 5 min). All supernatants were pooled and centrifuged at 39,800×g for 12 min at 4° C. The final pellet was resuspended in 20 mM Hepes-NaOH buffer (pH7.4 at 21±3° C.) to a tissue concentration of 7.5 mg.ml^−1, using a teflon-in-glass homogeniser.
Incubation Conditions and Data Analysis
These were essentially identical to those used for the guinea pig ileum myenteric plexus assay described above, except that the final assay concentration of [^3H]-R-α-methylhistamine was 0.1 nM. Typical variance in this assay is ±0.12 log units.

T1 sequence (Q9JI35 whole entry): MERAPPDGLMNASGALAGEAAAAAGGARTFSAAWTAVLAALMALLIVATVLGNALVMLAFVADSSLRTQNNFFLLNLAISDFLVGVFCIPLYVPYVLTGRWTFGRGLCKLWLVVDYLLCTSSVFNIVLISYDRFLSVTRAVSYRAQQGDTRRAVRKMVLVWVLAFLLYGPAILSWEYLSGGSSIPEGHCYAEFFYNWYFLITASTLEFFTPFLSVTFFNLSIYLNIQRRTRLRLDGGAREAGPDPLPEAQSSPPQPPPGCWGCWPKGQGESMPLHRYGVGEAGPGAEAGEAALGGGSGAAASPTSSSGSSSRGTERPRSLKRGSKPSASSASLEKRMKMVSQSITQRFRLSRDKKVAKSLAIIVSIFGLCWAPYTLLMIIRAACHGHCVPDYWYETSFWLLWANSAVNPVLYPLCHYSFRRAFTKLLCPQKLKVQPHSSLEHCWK

For the molecule `O=S(=O)(CCCCCc1c[nH]cn1)NCc1ccc(F)cc1` [Example 28, N-(4-Fluorobenzyl)-5-(1H-imidazol-4-yl)-1-pentanesulfonamide], the Kb in assay [1] was 19.1 nM. Further, the Ki in assay [2] was 7.08 nM.

For `O=S(=O)(CC(O)CCc1c[nH]cn1)NCc1ccc(Cl)cc1` (stereo not drawn) [Example 2, N-(4-Chlorobenzyl)-2-hydroxy-4-(1H-imidazol-4-yl)-1-butanesulfonamide], in assay [1], the Kb is 240 nM. Moreover, the Ki in assay [2] was 275 nM.

Consider `O=S(=O)(CCCCCc1c[nH]cn1)NCc1ccccc1` [Example 13, N-Benzyl-5-(1H-imidazol-4-yl)-1-pentanesulfonamide], for which the Kb in assay [1] is 58.9 nM. For the same molecule, the Ki in assay [2] is 8.91 nM. For the molecule `NC(CCCc1c[nH]cn1)CS(=O)(=O)NCc1ccc(Cl)cc1` (stereo not drawn) [Example 40, 2-Amino-N-(4-chlorobenzyl)-5-(1H-imidazol-4-yl)-1-pentanesulfonamide], the Ki in assay [2] is 22400 nM. Take `O=[N+]([O-])CC(CCCc1c[nH]cn1)CS(=O)(=O)NCc1ccc(Cl)cc1` (stereo not drawn) [Example 37, N-(4-Chlorobenzyl)-2-nitromethyl-5-(1H-imidazol-4-yl)-1-pentanesulfonamide]: in assay [1], the Kb was 20.4 nM. Also, in assay [2], the Ki is 6.61 nM.

For `Cc1ccc(CNS(=O)(=O)CCCCCc2c[nH]cn2)cc1` [Example 29, N-(4-Methylbenzyl)-5-(1H-imidazol-4-yl)-1-pentanesulfonamide], in assay [1], the Kb was 25.7 nM. In assay [2], the Ki is 6.17 nM.

`O=S(=O)(CCCCc1c[nH]cn1)CCc1ccc(Cl)cc1` [Example 24, [4-(1H-Imidazol-4-yl)butyl] 4-chlorophenethyl sulfone]: in assay [1], the Kb is 10.7 nM. For the same molecule, the Ki in assay [2] was 5.62 nM. In the same order, the values of `CNC(CCCc1c[nH]cn1)CS(=O)(=O)NCc1ccc(Cl)cc1` (stereo not drawn) [Example 39, N-(4-Chlorobenzyl)-2-methylamino-5-(1H-imidazol-4-yl)-1-pentanesulfonamide] are 24.5 nM and 2.95 nM. On to `O=S(=O)(CCCCCCc1c[nH]cn1)NCc1ccc(Cl)cc1` [Example 7, N-(4-Chlorobenzyl)-6-(1H-imidazol-4-yl)-1-hexanesulfonamide], for which the Kb in assay [1] was 5.13 nM. Further, in assay [2], the Ki was 2.88 nM. Consider `O=S(=O)(C/C=C/CCc1c[nH]cn1)NCc1ccc(Cl)cc1` [Example 33, (E)-N-(4-Chlorobenzyl)-5-(1H-imidazol-4-yl)-1-pent-2-enesulfonamide], for which the Kb in assay [1] is 4.68 nM. The Ki in assay [2] is 0.851 nM. `O=S1(=O)C2C=CC(c3c[nH]cn3)CC2CN1Cc1ccc(Cl)cc1` (stereo not drawn) [Example 42, 2-(4-Chlorohenzyl)-5-(1H-imidazol-4-yl)-2,3,3a, 4,5,7a-hexahydro-benzo[d]isothiazole 1,1-dioxide]: in assay [1], the Kb is 2090 nM. Further, in assay [2], the Ki is 1230 nM. The matching figures for `O=S(=O)(CCCCCc1c[nH]cn1)NCc1ccccc1Cl` [Example 19, N-(2-Chlorobenzyl)-5-(1H-imidazol-4-yl)-1-pentanesulfonamide]: 245 nM and 19.5 nM. Turning to `O=S(=O)(CC(O)CCCc1c[nH]cn1)NCC1CCCCC1` (stereo not drawn) [Example 18, N-Cyclohexylmethyl-2-hydroxy-5-(1H-imidazol-4-yl)-1-pentanesulfonamide], the Kb in assay [1] is 389 nM. Further, in assay [2], the Ki was 141 nM. `CN(Cc1ccc(Cl)cc1)S(=O)(=O)CCCCCc1c[nH]cn1` [Example 34, N-(4-Chlorobenzyl)-N-methyl-5-(1H-imidazol-4-yl)-1-pentanesulfonamide]: in assay [1], the Kb was 17.4 nM. In addition, in assay [2], the Ki was 10.2 nM. Take `O=S(=O)(CCCCc1c[nH]cn1)NCCc1ccc(Cl)cc1` [Example 9, N-(4-Chlorophenethyl)-4-(1H-imidazol-4-yl)-1-butanesulfonamide]: in assay [1], the Kb is 302 nM. The Ki in assay [2] is 44.7 nM.

As to `O=S(=O)(CCCCCc1c[nH]cn1)NCC12CC3CC(CC(C3)C1)C2` [Example 31, N-(1-Adamantylmethyl)-5-(1H-imidazol-4-yl)-1-pentanesulfonamide], the Kb in assay [1] is 174 nM. Further, in assay [2], the Ki was 186 nM. In the same order, the values of `O=S(=O)(CC(O)CCCc1c[nH]cn1)NCc1ccc(Br)cc1` (stereo not drawn) [Example 16, N-(4-Bromobenzyl)-2-hydroxy-5-(1H-imidazol-4-yl)-1-pentanesulfonamide] are 18.2 nM and 1.12 nM.

Take `O=S(=O)(CC(O)CCCCc1c[nH]cn1)NCc1ccc(Cl)cc1` (stereo not drawn) [Example 8, N-(4-Chlorobenzyl)-2-hydroxy-6-(1H-imidazol-4-yl)-1-hexanesulfonamide]: the Kb in assay [1] is 12.6 nM. Moreover, the Ki in assay [2] is 4.27 nM. As to `O=S(=O)(CC(O)CCCc1c[nH]cn1)NCc1ccccc1Cl` (stereo not drawn) [Example 20, N-(2-Chlorobenzyl)-2-hydroxy-5-(1H-imidazol-4-yl)-1-pentanesulfonamide], in assay [1], the Kb was 331 nM. Also, the Ki in assay [2] is 126 nM. For `O=C(CCc1c[nH]cn1)CS(=O)(=O)NCc1ccc(Cl)cc1` [Example 4, N-(4-Chlorobenzyl)-2-oxy-4-(1H-imidazol-4-yl)-1-butanesulfonamide], the Kb in assay [1] is 257 nM. In addition, the Ki in assay [2] is 61.7 nM. In the case of `O=S(=O)(CC(O)CCCc1c[nH]cn1)NCc1ccccc1` (stereo not drawn) [Example 14, N-Benzyl-2-hydroxy-5-(1H-imidazol-4-yl)-1-pentanesulfonamide], in assay [1], the Kb was 724 nM. For the same molecule, the Ki in assay [2] was 81.3 nM. With `NCC(CCCc1c[nH]cn1)CS(=O)(=O)NCc1ccc(Cl)cc1` (stereo not drawn) [Example 38, 2-Aminomethyl-N-(4-chlorobenzyl)-5-(1H-imidazol-4-yl)-1-pentanesulfonamide], the Kb in assay [1] was 12.3 nM. For the same molecule, in assay [2], the Ki was 1.32 nM. On to `O=S(=O)(/C=C/CCCc1c[nH]cn1)NCc1ccc(Cl)cc1` [Example 32, (E)-N-(4-Chlorobenzyl)-5-(1H-imidazol-4-yl)-1-pent-1-enesulfonamide], for which the Kb in assay [1] was 25.1 nM. Besides, in assay [2], the Ki is 5.89 nM. On to `O=S(=O)(CCCCc1c[nH]cn1)Cc1ccc(Cl)cc1` [Example 25, [4-(1H-Imidazol-4-yl)butyl]-4-chlorobenzyl sulfone], for which the Kb in assay [1] is 30.2 nM. In addition, the Ki in assay [2] is 18.6 nM. Take `O=S(=O)(CCCCCc1c[nH]cn1)NCc1cccc(Cl)c1` [Example 21, N-(3-Chlorobenzyl)-5-(1H-imidazol-4-yl)-1-pentanesulfonamide]: the Kb in assay [1] is 58.9 nM. For the same molecule, the Ki in assay [2] is 12 nM.

In the case of `O=S(=O)(CCCCCc1c[nH]cn1)NCCc1ccc(Cl)cc1` [Example 11, N-(4-Chlorophenethyl)-5-(1H-imidazol-4-yl)-1-pentanesulfonamide], the Kb in assay [1] was 29.5 nM. In addition, the Ki in assay [2] was 7.24 nM. For the molecule `O=S(=O)(CC(O)CCc1c[nH]cn1)NCCc1ccc(Cl)cc1` (stereo not drawn) [Example 10, N-(4Chlorophenethyl)-2-hydroxy-4-(1H-imidazol-4-yl)-1-butanesulfonamide], in assay [2], the Ki is 741 nM.

For `O=S(=O)(CCCCCc1c[nH]cn1)NCc1ccc(C(F)(F)F)cc1` [Example 30, N-(4-Trifluoromethylbenzyl)-5-(1H-imidazol-4-yl)-1-pentanesulfonamide], the Kb in assay [1] was 9.33 nM. In addition, the Ki in assay [2] is 1.51 nM.
